Values joined by “and” are separate entries in the source; they are usually repeats but may differ in a detail not shown here. Identical values can stand only once.
Assays:
Type in all cases: cell-based
320 non-olfactory GPCRs [1] = target: T1, 320 non-olfactory GPCRs (Homo sapiens, UniProt P24530)
T1 construct: expressed in transfected cells; host or cells: HTLA cells

320 non-olfactory GPCRs [2] = target: T2, 320 non-olfactory GPCRs (Homo sapiens, UniProt P50052)
T2 construct: expressed in transfected cells; host or cells: HTLA cells
T2 sequence (P50052 whole entry): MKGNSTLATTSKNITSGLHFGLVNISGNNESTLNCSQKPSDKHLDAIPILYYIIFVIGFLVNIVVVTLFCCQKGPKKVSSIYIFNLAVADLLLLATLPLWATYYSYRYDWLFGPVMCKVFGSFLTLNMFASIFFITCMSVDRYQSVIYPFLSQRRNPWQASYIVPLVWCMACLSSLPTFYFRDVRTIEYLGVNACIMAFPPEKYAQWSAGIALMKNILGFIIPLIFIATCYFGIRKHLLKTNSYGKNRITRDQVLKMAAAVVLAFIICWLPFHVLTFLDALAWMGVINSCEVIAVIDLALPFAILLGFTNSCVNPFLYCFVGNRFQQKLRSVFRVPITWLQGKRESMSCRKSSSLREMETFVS

320 non-olfactory GPCRs [3] = target: T3, 320 non-olfactory GPCRs (Homo sapiens, UniProt P51679)
T3 construct: expressed in transfected cells; host or cells: HTLA cells
T3 sequence (P51679 whole entry): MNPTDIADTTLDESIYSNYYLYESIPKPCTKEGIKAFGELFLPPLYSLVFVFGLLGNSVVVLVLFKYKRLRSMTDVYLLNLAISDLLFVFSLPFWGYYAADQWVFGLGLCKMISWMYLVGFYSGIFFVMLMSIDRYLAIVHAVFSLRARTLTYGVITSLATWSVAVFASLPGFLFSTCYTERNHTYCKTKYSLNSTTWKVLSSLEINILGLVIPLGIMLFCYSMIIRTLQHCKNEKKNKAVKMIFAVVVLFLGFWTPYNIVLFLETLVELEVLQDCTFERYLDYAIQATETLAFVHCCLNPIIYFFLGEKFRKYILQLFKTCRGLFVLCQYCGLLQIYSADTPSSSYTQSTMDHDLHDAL

320 non-olfactory GPCRs [4] = target: T4, 320 non-olfactory GPCRs (Homo sapiens, UniProt Q96LB2); settings: receptor MRGPRX1; replicate values, Fig_4g
T4 construct: expressed in transfected cells; host or cells: HTLA cells
T4 sequence (Q96LB2 whole entry): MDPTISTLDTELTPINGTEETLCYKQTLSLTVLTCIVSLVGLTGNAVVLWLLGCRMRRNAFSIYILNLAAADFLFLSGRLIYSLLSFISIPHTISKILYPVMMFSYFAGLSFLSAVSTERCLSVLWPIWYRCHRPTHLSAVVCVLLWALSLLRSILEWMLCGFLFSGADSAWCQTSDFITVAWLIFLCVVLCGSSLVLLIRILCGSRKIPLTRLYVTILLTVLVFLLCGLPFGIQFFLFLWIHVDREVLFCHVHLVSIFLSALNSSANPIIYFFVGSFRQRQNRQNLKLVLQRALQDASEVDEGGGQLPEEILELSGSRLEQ
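For Fold of Basal in this document: compound tested at 1 µM final concentration.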
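For GPCRome agonism screen response in this document: fold over basal response of each receptor without drug.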

T1 sequence (P24530 27-442): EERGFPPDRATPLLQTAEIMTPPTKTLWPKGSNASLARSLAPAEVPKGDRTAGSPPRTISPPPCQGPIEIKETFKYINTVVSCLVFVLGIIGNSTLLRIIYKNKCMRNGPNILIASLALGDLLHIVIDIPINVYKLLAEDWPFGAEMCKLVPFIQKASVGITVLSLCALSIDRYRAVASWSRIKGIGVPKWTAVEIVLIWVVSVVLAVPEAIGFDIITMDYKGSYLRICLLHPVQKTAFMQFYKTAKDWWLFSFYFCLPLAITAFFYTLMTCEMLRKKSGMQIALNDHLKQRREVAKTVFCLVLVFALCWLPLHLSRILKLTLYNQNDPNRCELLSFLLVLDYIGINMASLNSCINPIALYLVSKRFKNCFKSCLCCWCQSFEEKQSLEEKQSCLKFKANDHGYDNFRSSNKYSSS

## CCOc1cccc2cc(C(C)NCC3(O)CCCCC3)oc12 (stereo not shown) [O4LE6]
320 non-olfactory GPCRs [1]
  Fold of Basal: 0.7302 and 0.8478 and 0.8324 and 1.412
320 non-olfactory GPCRs [2]
  Fold of Basal: 1.003 and 1.182 and 1.322 and 1.107
320 non-olfactory GPCRs [3]
  Fold of Basal: 1.013 and 0.8978 and 0.7406 and 0.6452
320 non-olfactory GPCRs [4]
  GPCRome agonism screen response: 1.163 and 1.233 and 1.345 and 0.8039

From PMC7044277 (Nature Communications, 2020)
